Results from patent publication EP4722207A1, “OXOISOINDOLINYL-SUBSTITUTED TETRAHYDROPYRIMIDINEDIONE DERIVATIVE AND USE THEREOF” (Gluetacs Therapeutics (Shanghai) Co., Ltd., priority 2023, dated 2024).

How the values were obtained:
Format in all cases: cell-based
Conditions in all cases: compounds at 50 nM and 500 nM, 24 hours
[1] = biological target: T1, IKZF1 (Homo sapiens, UniProt Q13422+Q96SW2); assay: Western-blot assay, substrate protein degradation in hPBMCs: IKZF1
T1 construct: effects of the compounds of the present disclosure on the expression of target proteins in cells; endogenous in cells; host or cells: human PBMCs (hPBMCs)
Protocol: (§1) Conventional Western blot assay was performed to evaluate the effects of the compounds of the present disclosure on the expression of target proteins in cells. • (1) Cell Seeding and Protein Harvesting: Human peripheral blood mononuclear cells (hPBMCs) at a density of 1x10^6 cells/mL were thawed according to the PBMC Recovery Protocol (Milecell Biotechnologies Inc, Shanghai). […] After 24 hours of compounds treatment, cells were harvested and lysed in RIPA protein lysate containing protease inhibitors on ice for 30 min, followed by centrifugation. The supernatant was aspirated as the extracted total cell protein. The protein concentration of the supernatant was determined using the conventional BCA (Bicinchoninic Acid) assay. • (2) To the collected supernatant, 5X SDS sample loading buffer was added, followed by denaturation at 95°C for 5 minutes. The denatured samples were then separated by SDS-PAGE electrophoresis on a polyacrylamide gel. Proteins were transferred to a nitrocellulose membrane (0.45 µm NC membrane), blocked with blocking buffer at room temperature for 1 hour, and subjected to antibody incubation and development procedures according to the antibody manufacturer's instructions (Cell Signaling Technology).
(§2) Half-Maximal Degradation Concentration value (the drug concentration required for degrading proteins by 50%, abbreviated as DC50) reads method: comparing the grayscale values of Western blot bands from drug-treated samples with those from blank DMSO-treated controls, and identifying the drug concentration range at which the grayscale value is half that of the DMSO-treated control bands.
(§3) DC50 values can be calculated using ImageJ software to measure grayscale values of Western blot bands from drug-treated samples. The concentration-response curve is fitted to estimate the drug concentration corresponding to half the grayscale value.
(§4) Target protein remaining (%) refers to the percentage of target protein remaining in cells after treatment with protein degrader compounds.
(§5) Calculation method for target protein remaining (%): Use ImageJ software to measure grayscale values of Western blot bands from drug (protein degrader)-treated samples. The grayscale value of drug-treated bands is divided by that of internal control protein bands, and the resulting quotient is normalized to obtain the relative percentage of remaining target protein after protein degrader treatment. Target protein degradation rate(%) = 1−target protein remaining(%). [formula]

[2] = biological target: T2, WEE1 (Homo sapiens, UniProt P30291+Q96SW2); assay: Western-blot assay, substrate protein degradation in hPBMCs: WEE1
T2 construct: effects of the compounds of the present disclosure on the expression of target proteins in cells; endogenous in cells; host or cells: human PBMCs (hPBMCs)
Protocol: as §1, §2, §3, §4, §5

[3] = biological target: T3, IKZF2 (Homo sapiens, UniProt Q96SW2+Q9UKS7); assay: Western-blot assay, substrate protein degradation in hPBMCs: IKZF2
T3 construct: effects of the compounds of the present disclosure on the expression of target proteins in cells; endogenous in cells; host or cells: human PBMCs (hPBMCs)
Protocol: as §1, §2, §3, §4, §5

[4] = biological target: T4, CK1α (Homo sapiens, UniProt P48729+Q96SW2); assay: Western-blot assay, substrate protein degradation in hPBMCs: CK1α
T4 construct: effects of the compounds of the present disclosure on the expression of target proteins in cells; endogenous in cells; host or cells: human PBMCs (hPBMCs)
Protocol: as §1, §2, §3, §4, §5

[5] = biological target: T5, IKZF3 (Homo sapiens, UniProt Q96SW2+Q9UKT9); assay: Western-blot assay, substrate protein degradation in hPBMCs: IKZF3
T5 construct: effects of the compounds of the present disclosure on the expression of target proteins in cells; endogenous in cells; host or cells: human PBMCs (hPBMCs)
Protocol: as §1, §2, §3, §4, §5

[6] = biological target: T6, GSPT1 (Homo sapiens, UniProt P15170+Q96SW2); assay: Western-blot assay, substrate protein degradation in hPBMCs: GSPT1
T6 construct: effects of the compounds of the present disclosure on the expression of target proteins in cells; endogenous in cells; host or cells: human PBMCs (hPBMCs)
Protocol: as §1, §2, §3, §4, §5

T2 sequence (P30291 whole entry): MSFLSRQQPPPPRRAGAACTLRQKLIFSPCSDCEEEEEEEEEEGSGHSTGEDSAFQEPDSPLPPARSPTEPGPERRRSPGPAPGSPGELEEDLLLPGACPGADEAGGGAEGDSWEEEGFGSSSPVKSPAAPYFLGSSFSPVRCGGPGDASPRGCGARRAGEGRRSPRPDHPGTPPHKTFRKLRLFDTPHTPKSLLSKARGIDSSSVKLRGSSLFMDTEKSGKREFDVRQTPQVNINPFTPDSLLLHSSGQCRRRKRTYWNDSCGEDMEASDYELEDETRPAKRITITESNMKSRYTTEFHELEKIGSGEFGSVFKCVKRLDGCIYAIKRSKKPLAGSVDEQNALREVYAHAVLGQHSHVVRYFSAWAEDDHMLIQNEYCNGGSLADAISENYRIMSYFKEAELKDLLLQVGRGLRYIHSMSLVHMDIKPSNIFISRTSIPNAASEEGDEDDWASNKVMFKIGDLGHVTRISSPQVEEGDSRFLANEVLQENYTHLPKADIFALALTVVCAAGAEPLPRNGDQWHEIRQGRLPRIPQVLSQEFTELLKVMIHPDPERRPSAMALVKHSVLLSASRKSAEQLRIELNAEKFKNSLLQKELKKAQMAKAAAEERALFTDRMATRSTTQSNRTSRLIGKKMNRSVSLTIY
T2 sequence (Q96SW2 whole entry): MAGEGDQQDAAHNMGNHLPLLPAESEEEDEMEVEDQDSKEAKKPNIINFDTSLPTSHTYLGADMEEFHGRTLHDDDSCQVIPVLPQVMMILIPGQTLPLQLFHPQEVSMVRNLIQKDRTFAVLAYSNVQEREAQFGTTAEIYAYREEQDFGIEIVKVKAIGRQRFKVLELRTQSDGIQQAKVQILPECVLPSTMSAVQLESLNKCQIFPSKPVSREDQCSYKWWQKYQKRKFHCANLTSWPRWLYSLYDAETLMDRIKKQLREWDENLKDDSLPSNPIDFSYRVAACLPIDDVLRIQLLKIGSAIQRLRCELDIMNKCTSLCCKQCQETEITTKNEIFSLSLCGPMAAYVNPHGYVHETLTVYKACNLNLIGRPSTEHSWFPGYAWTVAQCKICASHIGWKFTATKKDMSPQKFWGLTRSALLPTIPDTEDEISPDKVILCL
T2 sequence (Q16531 whole entry partner): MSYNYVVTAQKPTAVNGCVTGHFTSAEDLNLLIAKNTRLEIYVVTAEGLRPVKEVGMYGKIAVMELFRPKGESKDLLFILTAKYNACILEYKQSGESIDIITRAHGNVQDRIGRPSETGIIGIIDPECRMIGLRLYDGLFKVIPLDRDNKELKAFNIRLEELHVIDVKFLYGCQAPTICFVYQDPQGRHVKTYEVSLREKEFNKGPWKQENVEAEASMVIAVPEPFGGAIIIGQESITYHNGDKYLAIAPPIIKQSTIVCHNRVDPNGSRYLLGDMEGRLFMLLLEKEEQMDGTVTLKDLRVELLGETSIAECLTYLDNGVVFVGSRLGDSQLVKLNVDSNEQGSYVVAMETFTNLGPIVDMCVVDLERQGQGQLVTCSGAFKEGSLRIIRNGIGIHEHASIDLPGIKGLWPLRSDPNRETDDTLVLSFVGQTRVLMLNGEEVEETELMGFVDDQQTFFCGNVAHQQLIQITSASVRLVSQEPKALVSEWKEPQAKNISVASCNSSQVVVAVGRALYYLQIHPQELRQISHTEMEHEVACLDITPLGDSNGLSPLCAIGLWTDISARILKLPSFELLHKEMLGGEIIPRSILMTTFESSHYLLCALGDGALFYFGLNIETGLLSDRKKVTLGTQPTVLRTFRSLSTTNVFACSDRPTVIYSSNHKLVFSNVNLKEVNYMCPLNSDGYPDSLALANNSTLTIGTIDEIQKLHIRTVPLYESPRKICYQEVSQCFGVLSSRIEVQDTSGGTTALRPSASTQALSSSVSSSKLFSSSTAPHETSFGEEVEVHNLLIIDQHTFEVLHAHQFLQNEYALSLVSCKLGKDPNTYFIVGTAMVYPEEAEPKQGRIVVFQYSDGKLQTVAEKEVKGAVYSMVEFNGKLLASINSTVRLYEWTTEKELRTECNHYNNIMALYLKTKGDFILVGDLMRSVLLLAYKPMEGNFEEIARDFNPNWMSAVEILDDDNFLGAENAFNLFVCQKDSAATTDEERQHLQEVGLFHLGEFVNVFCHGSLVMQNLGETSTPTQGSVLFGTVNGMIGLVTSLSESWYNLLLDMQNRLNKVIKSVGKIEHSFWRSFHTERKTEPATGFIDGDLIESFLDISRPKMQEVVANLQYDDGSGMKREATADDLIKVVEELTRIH
T5 sequence (Q9UKT9 whole entry): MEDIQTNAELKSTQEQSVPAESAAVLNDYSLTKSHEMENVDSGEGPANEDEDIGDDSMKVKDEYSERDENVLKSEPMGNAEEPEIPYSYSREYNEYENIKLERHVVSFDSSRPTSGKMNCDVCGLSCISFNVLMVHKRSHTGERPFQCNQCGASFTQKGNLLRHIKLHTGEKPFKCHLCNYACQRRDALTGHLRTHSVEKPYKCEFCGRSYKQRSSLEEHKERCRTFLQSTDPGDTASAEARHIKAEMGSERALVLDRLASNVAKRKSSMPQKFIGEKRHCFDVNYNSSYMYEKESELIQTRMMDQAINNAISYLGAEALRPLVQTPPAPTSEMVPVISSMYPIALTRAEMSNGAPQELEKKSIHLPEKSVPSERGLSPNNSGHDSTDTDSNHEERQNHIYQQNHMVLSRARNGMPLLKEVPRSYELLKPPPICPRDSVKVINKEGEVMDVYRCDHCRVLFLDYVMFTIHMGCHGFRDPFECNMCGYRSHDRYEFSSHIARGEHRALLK
T5 sequence (Q96SW2 whole entry): as the sequence (Q96SW2 whole entry) above
T5 sequence (Q16531 whole entry partner): as the sequence (Q16531 whole entry partner) above
T3 sequence (Q9UKS7 whole entry): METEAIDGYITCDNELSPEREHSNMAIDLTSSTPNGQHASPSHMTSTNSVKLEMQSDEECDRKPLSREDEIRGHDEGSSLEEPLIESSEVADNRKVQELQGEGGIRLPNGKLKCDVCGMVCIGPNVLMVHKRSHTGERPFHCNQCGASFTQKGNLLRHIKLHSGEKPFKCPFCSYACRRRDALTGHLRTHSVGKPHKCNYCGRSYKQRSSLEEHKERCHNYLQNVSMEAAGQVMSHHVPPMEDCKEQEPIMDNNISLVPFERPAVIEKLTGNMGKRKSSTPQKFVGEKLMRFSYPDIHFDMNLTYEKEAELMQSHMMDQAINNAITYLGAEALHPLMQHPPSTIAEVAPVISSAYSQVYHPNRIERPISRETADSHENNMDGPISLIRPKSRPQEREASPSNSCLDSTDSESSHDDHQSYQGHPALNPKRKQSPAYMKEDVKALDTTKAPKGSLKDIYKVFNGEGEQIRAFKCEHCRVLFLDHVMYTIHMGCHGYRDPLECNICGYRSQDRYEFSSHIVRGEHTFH
T3 sequence (Q96SW2 whole entry): as the sequence (Q96SW2 whole entry) above
T3 sequence (Q16531 whole entry partner): as the sequence (Q16531 whole entry partner) above
T4 sequence (P48729 whole entry): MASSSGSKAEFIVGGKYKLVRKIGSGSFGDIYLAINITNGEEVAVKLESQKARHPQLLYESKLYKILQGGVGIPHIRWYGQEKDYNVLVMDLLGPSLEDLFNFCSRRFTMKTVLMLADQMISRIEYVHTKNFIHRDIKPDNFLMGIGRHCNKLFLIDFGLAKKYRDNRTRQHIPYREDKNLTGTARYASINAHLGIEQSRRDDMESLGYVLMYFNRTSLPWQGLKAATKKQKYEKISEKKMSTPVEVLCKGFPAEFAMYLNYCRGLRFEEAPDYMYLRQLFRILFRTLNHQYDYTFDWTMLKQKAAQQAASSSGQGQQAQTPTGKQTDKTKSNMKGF
T4 sequence (Q96SW2 whole entry): as the sequence (Q96SW2 whole entry) above
T4 sequence (Q16531 whole entry partner): as the sequence (Q16531 whole entry partner) above
T1 sequence (Q13422 whole entry): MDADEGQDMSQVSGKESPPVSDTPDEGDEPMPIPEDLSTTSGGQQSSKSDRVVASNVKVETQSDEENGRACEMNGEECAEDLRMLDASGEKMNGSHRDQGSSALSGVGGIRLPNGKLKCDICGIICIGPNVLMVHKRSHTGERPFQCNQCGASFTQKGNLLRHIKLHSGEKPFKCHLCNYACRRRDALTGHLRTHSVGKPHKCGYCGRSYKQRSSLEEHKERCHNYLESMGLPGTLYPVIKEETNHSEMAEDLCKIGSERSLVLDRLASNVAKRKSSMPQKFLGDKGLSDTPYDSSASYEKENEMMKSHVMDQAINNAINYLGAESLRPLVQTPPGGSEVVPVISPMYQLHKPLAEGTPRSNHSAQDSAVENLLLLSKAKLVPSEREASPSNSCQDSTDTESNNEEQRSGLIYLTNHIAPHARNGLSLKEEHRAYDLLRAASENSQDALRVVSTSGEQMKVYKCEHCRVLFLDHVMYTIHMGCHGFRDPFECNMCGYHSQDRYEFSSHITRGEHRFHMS
T1 sequence (Q96SW2 whole entry): as the sequence (Q96SW2 whole entry) above
T1 sequence (Q16531 whole entry partner): as the sequence (Q16531 whole entry partner) above

SMILES	IKZF1 substrate protein remaining % [1]	WEE1 substrate protein remaining % [2]	IKZF2 substrate protein remaining % [3]	CK1α substrate protein remaining % [4]	IKZF3 substrate protein remaining % [5]	GSPT1 substrate protein remaining % [6]
O=C1CCN(N2Cc3cc(CN4CCN(c5cccc(F)n5)CC4)ccc3C2=O)C(=O)N1 [GT-05130, 1-(5-((4-(6-fluoropyridin-2-yl)piperazin-1-yl)methyl)-1-oxoisoindolin-2-yl)dihydropyrimidine-2,4(1H,3H)-dione]	A ("A" is defined as 0% ≤ substrate protein remaining % ≤ 80%)	A ("A" is defined as 0% ≤ substrate protein remaining % ≤ 80%)	A ("A" is defined as 0% ≤ substrate protein remaining % ≤ 80%)	A ("A" is defined as 0% ≤ substrate protein remaining % ≤ 80%)	A ("A" is defined as 0% ≤ substrate protein remaining % ≤ 80%)	A ("A" is defined as 0% ≤ substrate protein remaining % ≤ 80%)
O=C1CCN(N2Cc3cc(CN4CCN(c5ccc(F)cn5)CC4)ccc3C2=O)C(=O)N1 [GT-05131, 1-(5-((4-(5-fluoropyridin-2-yl)piperazin-1-yl)methyl)-1-oxoisoindolin-2-yl)dihydropyrimidine-2,4(1H,3H)-dione]	A ("A" is defined as 0% ≤ substrate protein remaining % ≤ 80%)	A ("A" is defined as 0% ≤ substrate protein remaining % ≤ 80%)	A ("A" is defined as 0% ≤ substrate protein remaining % ≤ 80%)	A ("A" is defined as 0% ≤ substrate protein remaining % ≤ 80%)	A ("A" is defined as 0% ≤ substrate protein remaining % ≤ 80%)	A ("A" is defined as 0% ≤ substrate protein remaining % ≤ 80%)
O=C1CCN(N2Cc3cc(CN4C5CC4CN(c4cccc(Cl)c4Cl)C5)ccc3C2=O)C(=O)N1 [GT-05162, 1-(5-((3-(2,3-dichlorophenyl)-3,6-diazabicyclo[3.1.1]heptan-6-yl)methyl)-1-oxoisoindolin-2-yl)dihydropyrimidine-2,4(1H,3H)-dione]	B ("B" is defined as 80%< substrate protein remaining %≤ 100%)	B ("B" is defined as 80%< substrate protein remaining %≤ 100%)	B ("B" is defined as 80%< substrate protein remaining %≤ 100%)	B ("B" is defined as 80%< substrate protein remaining %≤ 100%)	A ("A" is defined as 0% ≤ substrate protein remaining % ≤ 80%)	A ("A" is defined as 0% ≤ substrate protein remaining % ≤ 80%)
O=C1CCN(N2C(=O)c3ccc(CN4CCC(N(c5ccccc5)c5ccccc5)CC4)cc3C2=O)C(=O)N1 [GT-05177, 2-(2,4-dioxotetrahydropyrimidin-1(2H)-yl)-5-((4-(diphenylamino)piperidin-1-yl)methyl)isoindoline-1,3-dione]	B ("B" is defined as 80%< substrate protein remaining %≤ 100%)	B ("B" is defined as 80%< substrate protein remaining %≤ 100%)	B ("B" is defined as 80%< substrate protein remaining %≤ 100%)	B ("B" is defined as 80%< substrate protein remaining %≤ 100%)	B ("B" is defined as 80%< substrate protein remaining %≤ 100%)	A ("A" is defined as 0% ≤ substrate protein remaining % ≤ 80%)
O=C1CCN(N2C(=O)c3ccc(CN4CCC(Nc5ccccc5-c5ccc(Cl)cc5)CC4)cc3C2=O)C(=O)N1 [GT-05179, 5-((4-((4'-chloro-[1,1'-biphenyl]-2-yl)amino)piperidin-1-yl)methyl)-2-(2,4-dioxotetrahydropyrimidin-1(2H)-yl)isoindoline-1,3-dione]	B ("B" is defined as 80%< substrate protein remaining %≤ 100%)	A ("A" is defined as 0% ≤ substrate protein remaining % ≤ 80%)	B ("B" is defined as 80%< substrate protein remaining %≤ 100%)	B ("B" is defined as 80%< substrate protein remaining %≤ 100%)	B ("B" is defined as 80%< substrate protein remaining %≤ 100%)	B ("B" is defined as 80%< substrate protein remaining %≤ 100%)
CC1(C)CCC(CN2CCN(Cc3ccc4c(c3)C(=O)N(N3CCC(=O)NC3=O)C4=O)CC2)=C(c2ccc(Cl)cc2)C1 [GT-05180, 5-((4-((4'-chloro-5,5-dimethyl-3,4,5,6-tetrahydro-[1,1'-biphenyl]-2-yl)methyl)piperazin-1-yl)methyl)-2-(2,4-dioxotetrahydropyrimidin-1(2H)-yl)isoindoline-1,3-dione]	B ("B" is defined as 80%< substrate protein remaining %≤ 100%)	A ("A" is defined as 0% ≤ substrate protein remaining % ≤ 80%)	B ("B" is defined as 80%< substrate protein remaining %≤ 100%)	B ("B" is defined as 80%< substrate protein remaining %≤ 100%)	B ("B" is defined as 80%< substrate protein remaining %≤ 100%)	B ("B" is defined as 80%< substrate protein remaining %≤ 100%)
O=C1CCN(N2C(=O)c3ccc(CN4CC=C(c5c[nH]c6ncccc56)CC4)cc3C2=O)C(=O)N1 [GT-05181, 5-((4-(1H-pyrrolo[2,3-b]pyridin-3-yl)-3,6-dihydropyridin-1(2H)-yl)methyl)-2-(2,4-dioxotetrahydropyrimidin-1(2H)-yl)isoindoline-1,3-dione]	B ("B" is defined as 80%< substrate protein remaining %≤ 100%)	A ("A" is defined as 0% ≤ substrate protein remaining % ≤ 80%)	B ("B" is defined as 80%< substrate protein remaining %≤ 100%)	B ("B" is defined as 80%< substrate protein remaining %≤ 100%)	B ("B" is defined as 80%< substrate protein remaining %≤ 100%)	B ("B" is defined as 80%< substrate protein remaining %≤ 100%)
O=C1CCN(N2C(=O)c3ccc(CN4CC=C(c5cccc(Cl)c5Cl)CC4)cc3C2=O)C(=O)N1 [GT-05249, 5-((4-(2,3-dichlorophenyl)-3,6-dihydropyridin-1(2H)-yl)methyl)-2-(2,4-dioxotetrahydropyrimidin-1(2H)-yl)isoindoline-1,3-dione]	A ("A" is defined as 0% ≤ substrate protein remaining % ≤ 80%)	B ("B" is defined as 80%< substrate protein remaining %≤ 100%)	B ("B" is defined as 80%< substrate protein remaining %≤ 100%)	B ("B" is defined as 80%< substrate protein remaining %≤ 100%)	B ("B" is defined as 80%< substrate protein remaining %≤ 100%)	A ("A" is defined as 0% ≤ substrate protein remaining % ≤ 80%)
O=C1CCN(N2C(=O)c3ccc(CN4CCC(c5cccc(Cl)c5Cl)CC4)cc3C2=O)C(=O)N1 [GT-05250, 5-((4-(2,3-dichlorophenyl)piperidin-1-yl)methyl)-2-(2,4-dioxotetrahydropyrimidin-1(2H)-yl)isoindoline-1,3-dione]	B ("B" is defined as 80%< substrate protein remaining %≤ 100%)	B ("B" is defined as 80%< substrate protein remaining %≤ 100%)	A ("A" is defined as 0% ≤ substrate protein remaining % ≤ 80%)	B ("B" is defined as 80%< substrate protein remaining %≤ 100%)	B ("B" is defined as 80%< substrate protein remaining %≤ 100%)	B ("B" is defined as 80%< substrate protein remaining %≤ 100%)
